These results are taken from publication PMC11648915, “Identification and development of TRPM4 antagonists to counteract neuronal excitotoxicity” (iScience, 2024).

Where two headings read alike, the source gives them in different places.

The test system of series [1] is hsTRPM4 L907A, S924A and L907A/S924A mutants. Put plainly: Whole-cell patch clamp of wild-type and binding-site mutant hsTRPM4. To be noted: whole-cell voltage clamp, HEK293T. (In general: In patch-clamp work, channel activity is measured electrically.)
Description: Initially, we assessed the basic properties of the hsTRPM4 mutants using whole-cell patch clamp electrophysiology.
Another series has as its target T1, mouse TRPM4 (Mus musculus, UniProt Q7TN37).
T1 construct: Human TRPM4 (UniProtKB: Q8TD43-1) and mouse Trpm4 (UniProtKB: Q7TN37-1) were amplified via PCR; eGFP (C); expressed in transfected cells
Put plainly: Inside-out patch clamp, mouse TRPM4. The class given is cell-based. To be noted: inside-out patch clamp configuration.

Another series deals with human TRPM4 (Homo sapiens, UniProt Q8TD43). The experiment in a line: Inside-out patch clamp, human TRPM4. The class given is cell-based. On the set-up: Human TRPM4 (UniProtKB: Q8TD43-1) and mouse Trpm4 (UniProtKB: Q7TN37-1) were amplified via PCR; expressed in transfected cells. To be noted: inside-out patch clamp configuration. The method, then:
Patch clamp recordings were conducted using an EPC10 patch clamp amplifier and Patchmaster software (HEKA, Germany). An Ag/AgCl wire served as the reference electrode in all experiments. […] Liquid junction potential was compensated before achieving gigaseal formation. All experiments were conducted at room temperature. Whole-cell currents were recorded in transiently transfected HEK293 cells expressing either wildtype human TRPM4, TRPM4-L907A, or TRPM4-S924A. Recordings involved a 400 ms increasing voltage ramp from –100 mV to +100 mV, initiated from a holding potential of 0 mV. The interval between each sweep was 2 seconds, with data sampled at 5 kHz. […] To identify TRPM4 currents, extracellular Na^+ was replaced with equimolar NMDG^+. […] Similar to whole-cell recordings, a 400 ms increasing voltage ramp from –100 mV to +100 mV was applied from a holding potential of 0 mV. The interval between sweeps was 2 seconds, and data were sampled at 5 kHz. […] TRPM4 currents were activated by 500 μM CaCl2 and deactivated by 10 mM EGTA, both added to the intracellular solution. Ca^2+ activation curves were fitted using a likelihood maximization algorithm to estimate the parameters for the sigmoidal fitting curves y-maximum, slope and midpoint as part of the R package sicegar (V0.2.4).

Series [2] in a line: In vivo pharmacokinetics after single i.p. or i.v. dose. To be noted: female, C57BL/6J, mouse. The method, then:
Next, to assess in vivo availability of the Series 1–3 compounds, we evaluated drug metabolism and pharmacokinetics (DMPK). We measured compound concentrations in plasma, heart, and brain at several time points after intraperitoneal (i.p.) or intravenous (i.v.) single-dose injections.
Half-life and bioavailability were calculated by noncompartmental analysis using the R package PK[84] (v1.3-6).

Series [3] can be described thus: Parallel Artificial Membrane Permeability Assay (PAMPA). Format: in vitro ADME. The note with it: pH not given. The method, then: Parallel Artificial Membrane Permeability Assay (PAMPA) was performed using artificial lipid membrane layers to assess passive permeability of the test compound. Test compounds were diluted to 200 μM in system buffer at pH 5.0, 6.2 and 7.4. The solutions were filtered and 150 μL transferred to a High Sensitivity 96 well UV plate. This was analysed by UV as the reference plate. A 200 μL sample of the 200 μM solution was transferred to the ‘donor’ plate of the PAMPA pIon sandwich plate system. 200 μL of acceptor sink buffer was transferred to the ‘acceptor’ plate which had been previously treated with GIT-O lipid solution across the well filter. Donor and acceptor plates were sandwiched and kept in a humid environment at room temperature for 16 hours. On completion of the incubation the donor and acceptor plates were separated. 150 μL of solution was transferred from each of the donor and acceptor PAMPA sandwich plates into High Sensitivity 96 well UV plates for analysis by UV. at different time points. The concentration of the compound in the acceptor compartment was determined using mass spectrometry. The permeability coefficient (Papp) was calculated based on the rate of appearance of the compound in the acceptor compartment (nm/s).
In general terms: The PAMPA barrier holds no transporters, so it reflects passive diffusion.

In a further series the target is T2, CYP 2C9 (Homo sapiens, UniProt P11712).
T2 construct: purchased BD Gentest
T2 sequence (P11712 whole entry): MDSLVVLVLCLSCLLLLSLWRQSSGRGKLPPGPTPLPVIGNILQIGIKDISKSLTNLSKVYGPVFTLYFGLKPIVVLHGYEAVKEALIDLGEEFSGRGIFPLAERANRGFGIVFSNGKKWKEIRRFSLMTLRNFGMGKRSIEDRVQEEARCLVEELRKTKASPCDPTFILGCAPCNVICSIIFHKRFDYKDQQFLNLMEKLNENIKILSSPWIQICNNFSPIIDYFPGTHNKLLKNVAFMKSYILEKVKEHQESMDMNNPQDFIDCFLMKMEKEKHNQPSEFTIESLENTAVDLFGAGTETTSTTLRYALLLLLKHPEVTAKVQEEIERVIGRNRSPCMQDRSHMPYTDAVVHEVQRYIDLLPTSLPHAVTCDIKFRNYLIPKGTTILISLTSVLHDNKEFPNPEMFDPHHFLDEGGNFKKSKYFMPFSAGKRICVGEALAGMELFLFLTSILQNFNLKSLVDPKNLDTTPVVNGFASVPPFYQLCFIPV
Put plainly: CYP inhibition assay 2C9. Format: in vitro ADME. The method, then: (§1) The half-maximal inhibitory concentration (IC50) for cytochrome P450 (CYP) enzymes was determined using an in vitro enzyme inhibition assay. Recombinant CYP enzymes or human liver microsomes from BD Gentest, in 0.1 M phosphate buffer pH 7.4, containing native CYP enzymes were incubated with the test compound at various concentrations (1, 3, 10 and 30 μM) and containing 0.5% DMSO and 0.1% BSA final concentrations. 1 mM of NADPH cofactor was added and the reaction was started by a rapid increase of temperature until 37°C.

The target of a further series is T3, CYP 2C19 (Homo sapiens, UniProt P33261).
T3 construct: purchased BD Gentest
T3 sequence (P33261 whole entry): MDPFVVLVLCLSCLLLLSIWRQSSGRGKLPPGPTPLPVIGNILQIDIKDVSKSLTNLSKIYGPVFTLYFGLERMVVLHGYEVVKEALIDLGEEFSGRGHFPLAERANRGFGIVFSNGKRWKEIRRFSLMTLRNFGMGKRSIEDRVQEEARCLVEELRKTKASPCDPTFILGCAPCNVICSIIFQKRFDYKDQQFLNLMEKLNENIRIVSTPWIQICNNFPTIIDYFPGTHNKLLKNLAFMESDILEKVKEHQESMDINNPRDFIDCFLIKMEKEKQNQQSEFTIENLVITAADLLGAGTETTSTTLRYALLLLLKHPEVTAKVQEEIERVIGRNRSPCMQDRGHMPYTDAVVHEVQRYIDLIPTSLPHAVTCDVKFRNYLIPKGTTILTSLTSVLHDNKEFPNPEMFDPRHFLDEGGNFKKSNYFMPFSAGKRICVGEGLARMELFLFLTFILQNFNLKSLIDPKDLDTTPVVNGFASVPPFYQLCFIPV
Put plainly: CYP inhibition assay 2C19. The class given is in vitro ADME. The method, then: as §1

The nature of series [4]: Caco-2 permeability assay. The note with it: human, direction not given. Format: in vitro ADME. The method, then:
Caco-2 permeability was evaluated using a cell-based assay with Caco-2 cells cultured on permeable membrane inserts. The test compound was added at 10 μM to the apical (donor) compartment, and samples were collected from the basolateral (receiver) compartment at 120 min. The test compound was also added at 10 μM to the basolateral (donor) compartment, and samples were collected from the apical (receiver) compartment at 120 min. The amount of the compound in both compartments was measured using mass spectrometry (LC-MS/MS). The permeability coefficient (Papp, nm/s) apical to basolateral and basolateral to apical, and an efflux ratio were calculated.

T1 sequence (Q7TN37 whole entry): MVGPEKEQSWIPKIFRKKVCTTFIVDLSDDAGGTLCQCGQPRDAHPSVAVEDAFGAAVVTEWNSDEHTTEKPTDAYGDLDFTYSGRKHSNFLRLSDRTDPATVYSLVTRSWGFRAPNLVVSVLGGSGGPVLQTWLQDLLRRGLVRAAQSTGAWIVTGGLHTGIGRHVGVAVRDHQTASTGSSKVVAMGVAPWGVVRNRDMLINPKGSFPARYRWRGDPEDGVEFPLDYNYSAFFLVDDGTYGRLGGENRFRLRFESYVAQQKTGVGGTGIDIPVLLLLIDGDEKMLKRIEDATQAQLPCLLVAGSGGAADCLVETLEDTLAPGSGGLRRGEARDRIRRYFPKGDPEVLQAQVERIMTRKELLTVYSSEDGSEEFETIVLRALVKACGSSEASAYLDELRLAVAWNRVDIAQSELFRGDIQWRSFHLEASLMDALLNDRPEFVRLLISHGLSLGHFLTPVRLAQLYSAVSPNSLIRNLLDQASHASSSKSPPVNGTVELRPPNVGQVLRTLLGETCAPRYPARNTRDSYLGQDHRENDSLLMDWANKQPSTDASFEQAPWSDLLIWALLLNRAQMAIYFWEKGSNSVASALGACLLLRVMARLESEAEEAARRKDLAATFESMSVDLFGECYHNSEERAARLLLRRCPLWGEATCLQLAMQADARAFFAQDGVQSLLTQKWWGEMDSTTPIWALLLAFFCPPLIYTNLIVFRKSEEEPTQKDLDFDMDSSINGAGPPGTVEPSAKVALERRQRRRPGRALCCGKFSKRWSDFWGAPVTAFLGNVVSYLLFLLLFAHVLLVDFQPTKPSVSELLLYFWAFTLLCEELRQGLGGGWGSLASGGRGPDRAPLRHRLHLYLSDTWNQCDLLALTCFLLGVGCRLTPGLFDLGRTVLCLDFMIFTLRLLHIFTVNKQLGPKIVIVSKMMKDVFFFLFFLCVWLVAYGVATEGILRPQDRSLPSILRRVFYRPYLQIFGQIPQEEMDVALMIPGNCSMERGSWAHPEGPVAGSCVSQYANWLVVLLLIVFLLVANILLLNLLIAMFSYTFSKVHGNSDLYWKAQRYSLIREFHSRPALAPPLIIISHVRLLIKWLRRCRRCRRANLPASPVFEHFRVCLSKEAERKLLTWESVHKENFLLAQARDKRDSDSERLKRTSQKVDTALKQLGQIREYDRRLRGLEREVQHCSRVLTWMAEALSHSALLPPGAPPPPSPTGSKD
Chain of human TRPM4 (Q8TD43 whole entry): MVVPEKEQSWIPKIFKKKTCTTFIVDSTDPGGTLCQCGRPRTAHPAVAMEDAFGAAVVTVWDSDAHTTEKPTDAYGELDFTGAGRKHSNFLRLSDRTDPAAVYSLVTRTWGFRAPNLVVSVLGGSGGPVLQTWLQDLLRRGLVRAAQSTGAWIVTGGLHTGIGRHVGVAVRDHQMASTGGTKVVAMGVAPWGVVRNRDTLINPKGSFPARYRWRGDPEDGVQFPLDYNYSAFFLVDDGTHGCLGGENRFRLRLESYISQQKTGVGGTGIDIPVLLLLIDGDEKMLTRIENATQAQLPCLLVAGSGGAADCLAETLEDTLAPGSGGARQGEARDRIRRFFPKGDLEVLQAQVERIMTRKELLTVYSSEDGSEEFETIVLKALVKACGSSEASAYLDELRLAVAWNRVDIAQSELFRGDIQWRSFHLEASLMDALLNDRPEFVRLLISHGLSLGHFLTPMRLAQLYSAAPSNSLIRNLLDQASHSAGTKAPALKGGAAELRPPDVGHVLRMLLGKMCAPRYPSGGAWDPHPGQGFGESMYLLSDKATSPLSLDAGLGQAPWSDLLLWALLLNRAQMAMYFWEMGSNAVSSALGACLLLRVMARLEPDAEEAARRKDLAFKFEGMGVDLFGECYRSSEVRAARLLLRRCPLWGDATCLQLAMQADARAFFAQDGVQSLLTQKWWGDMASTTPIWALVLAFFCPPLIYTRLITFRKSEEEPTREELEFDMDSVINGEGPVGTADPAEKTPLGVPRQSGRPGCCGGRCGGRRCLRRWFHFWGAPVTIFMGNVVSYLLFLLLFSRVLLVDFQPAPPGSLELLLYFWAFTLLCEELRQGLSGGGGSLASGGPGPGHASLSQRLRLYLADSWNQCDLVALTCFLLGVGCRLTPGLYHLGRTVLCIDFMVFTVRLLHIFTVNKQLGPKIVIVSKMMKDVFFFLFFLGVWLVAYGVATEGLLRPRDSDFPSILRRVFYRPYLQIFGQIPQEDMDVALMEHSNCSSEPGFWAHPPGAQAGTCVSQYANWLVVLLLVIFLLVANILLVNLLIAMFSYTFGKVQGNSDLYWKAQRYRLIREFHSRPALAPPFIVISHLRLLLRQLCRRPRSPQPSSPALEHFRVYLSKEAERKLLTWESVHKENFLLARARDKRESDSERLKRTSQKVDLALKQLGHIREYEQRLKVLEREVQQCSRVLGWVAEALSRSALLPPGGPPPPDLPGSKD

The term half-life denotes the time in which the quantity being followed falls by half. On to `Fc1cccc(-c2ccccc2NCc2nc3ccccc3o2)c1` [CMP343], for which the “Current inhibition of hsTRPM4 L907A and S924A mutants versus wildtype” value in series [1] is recorded as “significantly reduced current inhibition in at least one hsTRPM4 mutant variant”. Besides, the results for the “Activity on mouse TRPM4” value at mouse TRPM4 and on mouse TRPM4 (listed as 343) were “reduced activity on mouse TRPM4 compared to human TRPM4” and “significantly less effective on mouse TRPM4”, respectively. The “Activity on human TRPM4” value on human TRPM4 is listed as “almost completely blocked”. Also, the half-life in series [2] (brain, ip, read-out: Brain half-life (converted)) is 2.1 h; in series [2] (brain, iv, read-out: Brain half-life (converted)), 0.2 h; in series [2] (heart, ip, read-out: Heart half-life (converted)), 15.3 h; in series [2] (heart, iv, read-out: Heart half-life (converted)), 2.1 h; in series [2] (plasma, ip, read-out: Plasma half-life (converted)) it was 4.3 h; in series [2] (plasma, iv, read-out: Plasma half-life (converted)), 0.3 h.

In the case of `Fc1ccccc1-c1ccccc1NCc1nc2ccccc2o1` [CMP353], in series [3], the PAMPA perm. entry is recorded as “low sensitivity”.

In general, IC50 refers to the concentration at which inhibition is half-maximal. Turning to `c1csc(-c2ccccc2NCc2nc3ccccc3o2)c1` [CMP355], the values for the IC50 on CYP 2C9 and against CYP 2C19 were 14.9 µM and 6.2 µM, respectively.

Turning to `Cc1ccsc1-c1ccccc1NCc1nc2ccccc2o1` [CMP369], the Papp at 120 min, 10 μM in series [4] (read-out: Caco-2 perm.) turned out to be 52 ×10⁻⁶ cm/s.

`Nc1ccccc1-c1ccccc1NCc1nc2ccccc2o1` [CMP457] gave a Papp at 120 min, 10 μM in series [4] (heading: Caco-2 perm.) of 21 ×10⁻⁶ cm/s. The Papp at 16 h, 200 μM in series [3] (PAMPA, read-out: PAMPA perm.) was found to be 37.4 ×10⁻⁶ cm/s.
